One data set has as its system A-549 cells. Kind of data set: MTT cell viability assay, A-549. It is filed as cell-based, human. The note with it: MTT, 72 h, IC50 ± SD. How it is done: (§1) To evaluate the effects of the newly synthesized tetrahydroquinolin-2(1H)-one derivatives on cell viability, we treated human colon cancer cells HCT-116, human breast cancer cells MCF-7, and human non-small cell lung cancer cells A-549 with different concentrations of the compounds for 72 h. After incubation, the MTT (3-(4,5-dimethylthiazol-2-yl)-2,5-diphenyltetrazolium bromide) assay was performed and the cytotoxic potency of compounds (expressed in IC50) on the cells was determined in comparison to control cells treated with 1% of dimethyl sulfoxide (DMSO) (Table 1). […] We also compared the activity of 20d and 19b to the reference control drug Cisplatin, which is widely used in chemotherapy.
(§2) A-549 (CCL-185) and MCF-7 ([…]) cells were cultured in RPMI-1640 medium, while HCT-116 (CVCL-427), (hMLH1)-deficient (MMR^–) and hMLH1-proficient (MMR^+) RKO cells were cultured in McCoy’s 5A medium. The culture media were supplemented with 10% fetal bovine serum, 2 mM L-glutamine, and antibiotics (penicillin 62.6 µg/ml and streptomycin 40 µg/ml). Cultivation of cell lines was carried out at 37 °C under a humidified atmosphere containing 5% CO2, and the cultures were routinely screened for Mycoplasma contamination. A-549, MCF-7, and HCT-116 cells were obtained from American Type Culture Collection (ATCC), while RKO colon carcinoma cells were a kind gift of Dr Timothy Kinsella (Brown University, USA).
(§3) The viability of cells was determined in response to the newly synthesized compounds using the MTT (Sigma-Aldrich) assay. Briefly, cells were seeded into 96-well plates and allowed to attach overnight. Then, cells were exposed to various concentrations of compounds for 24, 48 or 72 h. Negative controls were treated with the same amount of DMSO solvent (1%). After treatment, the MTT solution (0.4 mg/ml) was added to each well and allowed to react with cells for 2–3 h at 37 °C. Next, the medium was removed, the formazan product formed was dissolved in 100 μl of DMSO, and the absorbance was determined at 540 nm using an ASYS UVM340 microplate reader (Biochrom Ltd.). The IC50 value, which represents the concentration of the compound required to inhibit cell growth by 50% compared to vehicle, was calculated using GraphPad Prism 8 software based on the curves plotting survival against dose averaged from at least three independent experiments.
On the technique in general: Tetrazolium dyes change colour on reduction, which living cells bring about.

The next data set concerns MCF-7 cells. Kind of data set: MTT cell viability assay, MCF-7. It is filed as cell-based, human. The note with it: IC50 ± SD. Here is the method:
as §1, §2, §3

The test system of another data set is HEK293 cells. Kind of data set: MTT cell viability assay, HEK293. It is filed as cell-based, human.
For another data set, the system named is HCT-116 cells. In words: MTT cell viability assay, HCT-116. It counts as cell-based, human. The note with it: 72 h; for IC50: MTT, IC50 ± SD; for cytotoxicity on tested cell lines: HCT-116, MCF-7, A-549, concentrations up to 50 µM. How it is done:
as §1, §2, §3

The mark [1] stands for this setting: Homo sapiens, HEK293, IC50 ± SD.

Where only a bound is given, the exact number is not on record here.

Regarding `COc1cc(-c2ccccc2)c2c(n1)C(OC(=O)Nc1ccc(F)cc1)CCC2` (stereo not shown) [Compound 19c, (2-methoxy-4-phenyl-5,6,7,8-tetrahydroquinolin-8-yl) N-(4-fluorophenyl)carbamate], the melting point – broadly, the temperature of the solid-liquid transition – is 125 to 127 °C. Further, the 50% inhibitory concentration (IC50) (usually the point on the concentration scale where inhibition reaches its midpoint) with A-549 cells (Homo sapiens, A549) worked out at 28.4 ± 0.56 µM. In addition, the IC50 with MCF-7 cells (Homo sapiens, MCF7, 72 h) was > 50 µM. The IC50 with HEK293 cells (setting [1]) was > 50 µM. Besides, the half-maximal inhibitory concentration (IC50) in the data set with HCT-116 cells (Homo sapiens, HCT-116, 72 h) is ~13 µM. Moreover, the IC50 in the data set on HCT-116 cells was found to be 13 ± 2.68 µM.
For the compound `O=C(Nc1ccc(Cl)cc1)OC1CCCc2c(-c3ccccc3)cc(Cl)nc21` (stereo not shown) [Compound 18e, (2-chloro-4-phenyl-5,6,7,8-tetrahydroquinolin-8-yl) N-(4-chlorophenyl)carbamate], the IC50 is 45.3 ± 4.2 µM in the data set with A-549 cells (Homo sapiens, A549); > 50 µM in the data set with MCF-7 cells (Homo sapiens, MCF7, 72 h); > 50 µM in the data set with HEK293 cells (setting [1]); > 50 µM in the data set on HCT-116 cells (Homo sapiens, HCT-116, 72 h).
As to `N.N.[Cl][Pt][Cl]` [Cisplatin, reference compound], the IC50 in the data set on A-549 cells was found to be 29.01 ± 0.12 µM; in the data set with MCF-7 cells (72 h), 33.8 ± 1.56 µM; with HEK293 cells (IC50 ± SD) it was 28.4 ± 1.97 µM; in the data set with HCT-116 cells, 24.9 ± 1.14 µM.
Regarding `O=C(Nc1ccc(F)cc1)OC1CCCc2c(-c3ccccc3)cc(=O)[nH]c21` (stereo not shown) [Compound 20c, (2-oxo-4-phenyl-5,6,7,8-tetrahydroquinolin-8-yl) N-(4-fluorophenyl)carbamate], the IC50 is 23.8 ± 4.02 µM in the data set with A-549 cells (Homo sapiens, A549); > 50 µM in the data set on MCF-7 cells (Homo sapiens, MCF7, 72 h); > 50 µM in the data set with HEK293 cells (setting [1]); 18.4 ± 2.04 µM in the data set on HCT-116 cells (Homo sapiens, HCT-116, 72 h).
For `COc1cc(-c2ccccc2)c2c(n1)C(OC(=O)Nc1ccccc1)CCC2` (stereo not shown) [Compound 19a, (2-methoxy-4-phenyl-5,6,7,8-tetrahydroquinolin-8-yl) N-phenylcarbamate], the IC50 was > 50 µM in the data set with A-549 cells (Homo sapiens, A549); > 50 µM in the data set with MCF-7 cells (Homo sapiens, MCF7, 72 h); > 50 µM in the data set on HEK293 cells (setting [1]); 26.2 ± 1.69 µM with HCT-116 cells (Homo sapiens, HCT-116, 72 h).
For the compound `O=C(Nc1ccc([N+](=O)[O-])cc1)OC1CCCc2c(-c3ccccc3)cc(Cl)nc21` (stereo not shown) [Compound 18b, (2-chloro-4-phenyl-5,6,7,8-tetrahydroquinolin-8-yl) N-(4-nitrophenyl)carbamate], the IC50 was > 50 µM with A-549 cells (Homo sapiens, A549); > 50 µM in the data set with MCF-7 cells (Homo sapiens, MCF7, 72 h); > 50 µM with HEK293 cells (setting [1]); > 50 µM in the data set with HCT-116 cells (Homo sapiens, HCT-116, 72 h). The “cytotoxicity on tested cell lines” value in the data set with HCT-116 cells was “no cytotoxicity”.
`COc1cc(-c2ccccc2)c2c(n1)C(OC(=O)Nc1cccc(F)c1)CCC2` (stereo not shown) [Compound 19d, (2-methoxy-4-phenyl-5,6,7,8-tetrahydroquinolin-8-yl) N-(3-fluorophenyl)carbamate]: the IC50 was 41.1 ± 0.93 µM in the data set on A-549 cells (Homo sapiens, A549); > 50 µM in the data set with MCF-7 cells (Homo sapiens, MCF7, 72 h); > 50 µM with HEK293 cells (setting [1]); 31.6 ± 0.58 µM with HCT-116 cells (Homo sapiens, HCT-116, 72 h).
Turning to `O=C(Nc1ccc(Cl)cc1)OC1CCCc2c(-c3ccccc3)cc(=O)[nH]c21` (stereo not shown) [Compound 20e, (2-oxo-4-phenyl-5,6,7,8-tetrahydroquinolin-8-yl) N-(4-chlorophenyl)carbamate], the IC50 is > 50 µM in the data set with A-549 cells (Homo sapiens, A549); > 50 µM with MCF-7 cells (Homo sapiens, MCF7, 72 h); > 50 µM in the data set with HEK293 cells (setting [1]); > 50 µM in the data set with HCT-116 cells (Homo sapiens, HCT-116, 72 h). In addition, the “cytotoxicity on tested cell lines” value in the data set with HCT-116 cells was “no cytotoxicity”.
On to `O=c1cc(-c2ccccc2)c2c([nH]1)CCCC2` [Compound 9, 4-phenyl-5,6,7,8-tetrahydro-1H-quinolin-2-one], for which the concentration for half-maximal inhibition (IC50) in the data set with A-549 cells (Homo sapiens, A549) is > 50 µM; in the data set on MCF-7 cells (Homo sapiens, MCF7, 72 h) it was > 50 µM; in the data set on HEK293 cells (setting [1]), > 50 µM; in the data set with HCT-116 cells (Homo sapiens, HCT-116, 72 h) it was > 50 µM. For the same compound, the “cytotoxicity on tested cell lines” value in the data set with HCT-116 cells is on record as “no cytotoxicity”.
As to `O=C(Nc1cccc(F)c1)OC1CCCc2c(-c3ccccc3)cc(Cl)nc21` (stereo not shown) [Compound 18d, (2-chloro-4-phenyl-5,6,7,8-tetrahydroquinolin-8-yl) N-(3-fluorophenyl)carbamate], the IC50 in the data set on A-549 cells (Homo sapiens, A549) is > 50 µM; with MCF-7 cells (Homo sapiens, MCF7, 72 h), > 50 µM; in the data set with HEK293 cells (setting [1]) it was > 50 µM; with HCT-116 cells (Homo sapiens, HCT-116, 72 h), > 50 µM. Besides, the “cytotoxicity on tested cell lines” value in the data set on HCT-116 cells is “no cytotoxicity”.

The record behind these values is paper PMC9200803, “Design, synthesis, and biological evaluation of tetrahydroquinolinones and tetrahydroquinolines with anticancer activity” (Scientific Reports, 2022).
